# Literature values, collected in patent US9629818B2, “Pharmaceutical composition of tapentadol for parenteral administration” (TORRENT PHARMACEUTICALS LTD, priority 2012, dated 2017).
# How the values were obtained:
# [1] = in vivo
# [2] = given orally
structure (smiles),measurement,setting,value
"CC[C@@H](c1cccc(O)c1)[C@@H](C)CN(C)C [tapentadol, (−)-(1R,2R)-3-(3-dimethylamino-1-ethyl-2-methyl-propyl)-phenol]",duration of analgesic effect,[1],≤ 12 h
same,parent compound metabolized,[2],About 97%
